Measured values as given in patent US9499550B2 (BRISTOL-MYERS SQUIBB COMPANY, priority 2012, dated 2016).
pEC50: −log10 of the molar value. Like-named read-outs stand apart in the source and are kept apart here.

Key:
[1] = test system: HCV genotype 1a (H77 strain) replicon in HUH-7 cells; experiment: HCV replicon luciferase reporter assay, genotype 1a; assay type: cell-based; conditions: Hepatitis C virus, Huh-7, 72 h, 3 days incubation
Outline: (§1)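 Replicon inhibition for both genotypes was measured as Renilla luciferase signal (EnduRen, 7.5 μM final, 2 h) after 3-day, 37° C exposure of replicon-bearing HUH-7 cells in 4% FCS DMEM, 0.5% DMSO. The 1b construct carries S1179I; the 1a H77 construct carries P1496L and S2204I. Twenty-point, 3-fold dilutions were fitted four-parametrically for EC50, and CC50 was taken from multiplexed Cell Titer-Blue.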

[2] = test system: HCV genotype 1b (Con1) replicon in HUH-7 cells; experiment: HCV replicon luciferase reporter assay, genotype 1b; assay type: cell-based; conditions: Hepatitis C virus, Huh-7, 72 h, 3 days incubation
Outline: as §1

[3] = HCV genotype 1a replicon luciferase assay, range class, read-out: LE_1a (EC50, range)
[4] = HCV genotype 1b replicon luciferase assay, range class, read-out: LE_1b (EC50, range)
[5] = HCV genotype 1a replicon luciferase, read-out: LE_1a (EC50, range)
[6] = HCV genotype 1b replicon luciferase, read-out: LE_1b (EC50, range)

Row | SMILES | pEC50 [1, 3] | pEC50 [2, 4] | pEC50 [1, 5] | pEC50 [2, 6] | further results
1 | COc1ccc2c(O[C@@H]3C[C@H]4C(=O)N[C@]5(C(=O)NS(=O)(=O)C6CC6)C[C@H]5/C=C\CC[C@@H](C)C[C@@H](C)[C@H](NC(=O)O[C@@H]5C[C@@H]6C[C@@H]6C5)C(=O)N4C3)nc(N3CCOCC3)cc2c1 [Compound 3105, (1R,3r,5S)-bicyclo[3.1.0]hexan-3-yl((2R,6S,7R,9R,13aS,14aR,16aS,Z)-14a-((cyclopropylsulfonyl)carbamoyl)-2-((6-methoxy-3-morpholinoisoquinolin-1-yl)oxy)-7,9-dimethyl-5,16-dioxo-1,2,3,5,6,7,8,9,10,11,13a,14,14a,15,16,16a-hexadecahydrocyclopropa[e]pyrrolo[1,2-a][1,4]diazacyclopentadecin-6-yl)carbamate] | > 8.26 | > 8.26 | – | – | –
2 | COc1cnc(O[C@@H]2C[C@H]3C(=O)N[C@]4(C(=O)NS(=O)(=O)C5(CO)CC5)C[C@H]4/C=C\CC[C@@H](C)C[C@@H](C)[C@H](NC(=O)OC(C)(C)C)C(=O)N3C2)c2ccccc12 [Compound 4114, tert-butyl (2R,6S,7R,9R,13aS,14aR,16aS,Z)-14a-(1-(hydroxymethyl)cyclopropylsulfonylcarbamoyl)-2-(4-methoxyisoquinolin-1-yloxy)-7,9-dimethyl-5,16-dioxo-1,2,3,5,6,7,8,9,10,11,13a,14,14a,15,16,16a-hexadecahydrocyclopropa[e]pyrrolo[1,2-a][1,4]diazacyclopentadecin-6-ylcarbamate] | – | – | 6.99 to 8.32 | 6.99 to 8.32 | –
3 | C[C@@H]1CC/C=C\[C@@H]2C[C@@]2(C(=O)NS(=O)(=O)C2(C)CC2)NC(=O)[C@@H]2C[C@@H](Oc3nccc4cc(OCC(=O)O)ccc34)CN2C(=O)[C@@H](NC(=O)OC(C)(C)C)[C@H](C)C1 [Compound 2003, 2-((1-(((2R,6S,7R,9R,13aS,14aR,16aS,Z)-6-((tert-butoxycarbonyl)amino)-7,9-dimethyl-14a-(((1-methylcyclopropyl)sulfonyl)carbamoyl)-5,16-dioxo-1,2,3,5,6,7,8,9,10,11,13a,14,14a,15,16,16a-hexadecahydrocyclopropa[e]pyrrolo[1,2-a][1,4]diazacyclopentadecin-2-yl)oxy)isoquinolin-6-yl)oxy)acetic acid] | < 7.06 | < 7.06 | – | – | pEC50 ([1]; HCV genotype 1a replicon luciferase assay, read-out: LE_1a (EC50)): 6.48; pEC50 ([2]; HCV genotype 1b replicon luciferase assay, read-out: LE_1b (EC50)): 6.80
4 | COc1ccc2c(O[C@@H]3C[C@H]4C(=O)N[C@]5(C(=O)NS(=O)(=O)C6CC6)C[C@H]5/C=C\CC[C@@H](C)C[C@@H](C)[C@H](NC(=O)OC(C)(C)C)C(=O)N4C3)nc(-c3ccc(OC)c(Cl)c3)cc2c1 [Compound 3048, tert-butyl ((2R,6S,7R,9R,13aS,14aR,16aS,Z)-2-((3-(3-chloro-4-methoxyphenyl)-6-methoxyisoquinolin-1-yl)oxy)-14a-((cyclopropylsulfonyl)carbamoyl)-7,9-dimethyl-5,16-dioxo-1,2,3,5,6,7,8,9,10,11,13a,14,14a,15,16,16a-hexadecahydrocyclopropa[e]pyrrolo[1,2-a][1,4]diazacyclopentadecin-6-yl)carbamate] | > 8.26 | > 8.26 | – | – | –
5 | COc1ccc2c(O[C@@H]3C[C@H]4C(=O)N[C@]5(C(=O)NS(=O)(=O)C6(C)CC6)C[C@H]5/C=C\CC[C@@H](C)C[C@@H](C)[C@H](NC(=O)O[C@H](C)C(F)(F)F)C(=O)N4C3)nc(-c3ccc(OC(C)C)cc3)c(OC)c2c1 [Compound 5350, (R)-1,1,1-trifluoropropan-2-yl ((2R,6S,7R,9R,13aS,14aR,16aS,Z)-2-((3-(4-isopropoxyphenyl)-4,6-dimethoxyisoquinolin-1-yl)oxy)-7,9-dimethyl-14a-(((1-methylcyclopropyl)sulfonyl)carbamoyl)-5,16-dioxo-1,2,3,5,6,7,8,9,10,11,13a,14,14a,15,16,16a-hexadecahydrocyclopropa[e]pyrrolo[1,2-a][1,4]diazacyclopentadecin-6-yl)carbamate] | – | – | > 8.26 | > 8.26 | pEC50 ([1]; HCV genotype 1a replicon luciferase, read-out: LE_1a (EC50)): 8.67; pEC50 ([2]; HCV genotype 1b replicon luciferase, read-out: LE_1b (EC50)): 8.83
6 | COc1ccc2c(O[C@@H]3C[C@H]4C(=O)N[C@]5(C(=O)NS(=O)(=O)C6(C)CC6)C[C@H]5/C=C\CC[C@@H](C)C[C@@H](C)[C@H](NC(=O)OC(C)(C)C)C(=O)N4C3)ncc(N3CCOCC3)c2c1 [Compound 4137, tert-butyl (2R,6S,7R,9R,13aS,14aR,16aS,Z)-2-(6-methoxy-4-morpholinoisoquinolin-1-yloxy)-7,9-dimethyl-14a-(1-methylcyclopropylsulfonylcarbamoyl)-5,16-dioxo-1,2,3,5,6,7,8,9,10,11,13a,14,14a,15,16,16a-hexadecahydrocyclopropa[e]pyrrolo[1,2-a][1,4]diazacyclopentadecin-6-ylcarbamate] | – | – | > 8.26 | > 8.26 | –
7 | [2H]C([2H])([2H])C(OC(=O)N[C@@H]1C(=O)N2C[C@H](Oc3nccc4cc(OC)c(F)cc34)C[C@H]2C(=O)N[C@]2(C(=O)NS(=O)(=O)C3(C)CC3)C[C@H]2/C=C\CC[C@@H](C)C[C@H]1CC)(C([2H])([2H])[2H])C(F)(F)F [Compound 5429] | – | – | 8.30 to 9.00 | 8.30 to 9.00 | –
8 | CC[C@@H]1C[C@H](C)CC/C=C\[C@@H]2C[C@@]2(C(=O)NS(=O)(=O)C2(C)CC2)NC(=O)[C@@H]2C[C@@H](Oc3nnc(OC)c4ccccc34)CN2C(=O)[C@H]1NC(=O)OC(C)(C)C(F)(F)F [Compound 5018, 1,1,1-trifluoro-2-methylpropan-2-yl((2R,6S,7R,9R,13aS,14aR,16aS,Z)-7-ethyl-2-((4-methoxyphthalazin-1-yl)oxy)-9-methyl-14a-(((1-methylcyclopropyl)sulfonyl)carbamoyl)-5,16-dioxo-1,2,3,5,6,7,8,9,10,11,13a,14,14a,15,16,16a-hexadecahydrocyclopropa[e]pyrrolo[1,2-a][1,4]diazacyclopentadecin-6-yl)carbamate] | – | – | > 8.26 | > 8.26 | –
9 | CCN(C)c1cc2cc(OC)ccc2c(O[C@@H]2C[C@H]3C(=O)N[C@]4(C(=O)NS(=O)(=O)C5(CF)CC5)C[C@H]4/C=C\CC[C@@H](C)C[C@@H](C)[C@H](NC(=O)OC(C)(C)C(F)(F)F)C(=O)N3C2)n1 [Compound 1137, 1,1,1-trifluoro-2-methylpropan-2-yl((2R,6S,7R,9R,13aS,14aR,16aS,Z)-2-((3-(ethyl(methyl)amino)-6-methoxyisoquinolin-1-yl)oxy)-14a-(((1-(fluoromethyl)cyclopropyl)sulfonyl)carbamoyl)-7,9-dimethyl-5,16-dioxo-1,2,3,5,6,7,8,9,10,11,13a,14,14a,15,16,16a-hexadecahydrocyclopropa[e]pyrrolo[1,2-a][1,4]diazacyclopentadecin-6-yl)carbamate] | 6.99 to 8.32 | > 8.26 | – | – | –
10 | C[C@@H]1CC/C=C\[C@@H]2C[C@@]2(C(=O)NS(=O)(=O)C2(C)CC2)NC(=O)[C@@H]2C[C@@H](Oc3nccc4c5c(ccc34)N(C)CCO5)CN2C(=O)[C@@H](NC(=O)O[C@@H]2C[C@@H]3C[C@@H]3C2)[C@H](C)C1 [Compound 5300, (1R,3r,5S)-bicyclo[3.1.0]hexan-3-yl((2R,6S,7R,9R,13aS,14aR,16aS,Z)-7,9-dimethyl-2-((4-methyl-3,4-dihydro-2H-[1,4]oxazino[2,3-f]isoquinolin-7-yl)oxy)-14a-(((1-methylcyclopropyl)sulfonyl)carbamoyl)-5,16-dioxo-1,2,3,5,6,7,8,9,10,11,13a,14,14a,15,16,16a-hexadecahydrocyclopropa[e]pyrrolo[1,2-a][1,4]diazacyclopentadecin-6-yl)carbamate] | – | – | > 8.26 | > 8.26 | –
11 | C[C@@H]1CC/C=C\[C@@H]2C[C@@]2(C(=O)NS(=O)(=O)C2(CF)CC2)NC(=O)[C@@H]2C[C@@H](Oc3nccc4c5c(ccc34)CCCO5)CN2C(=O)[C@@H](NC(=O)OC(C)(C)C(F)(F)F)[C@H](C)C1 [Compound 6066, 1,1,1-trifluoro-2-methylpropan-2-yl((2R,6S,7R,9R,13aS,14aR,16aS,Z)-2-((3,4-dihydro-2H-pyrano[2,3-f]isoquinolin-7-yl)oxy)-14a-(((1-(fluoromethyl)cyclopropyl)sulfonyl)carbamoyl)-7,9-dimethyl-5,16-dioxo-1,2,3,5,6,7,8,9,10,11,13a,14,14a,15,16,16a-hexadecahydrocyclopropa[e]pyrrolo[1,2-a][1,4]diazacyclopentadecin-6-yl)carbamate] | – | – | 8.30 to 9.00 | 8.30 to 9.00 | –
12 | COc1ccc2c(O[C@@H]3C[C@H]4C(=O)N[C@]5(C(=O)NS(=O)(=O)C6CC6)C[C@H]5/C=C\CC[C@H](C)C[C@@H](C)[C@H](NC(=O)NC(C)(C)C)C(=O)N4C3)nc(-c3ccc(OC(C)C)nc3)cc2c1 [Compound 5220, (2R,6S,7R,9S,13aS,14aR,16aS,Z)-6-(3-(tert-butyl)ureido)-N-(cyclopropylsulfonyl)-2-((3-(6-isopropoxypyridin-3-yl)-6-methoxyisoquinolin-1-yl)oxy)-7,9-dimethyl-5,16-dioxo-1,2,3,5,6,7,8,9,10,11,13a,14,14a,15,16,16a-hexadecahydrocyclopropa[e]pyrrolo[1,2-a][1,4]diazacyclopentadecine-14a-carboxamide] | – | – | > 8.26 | > 8.26 | –
